From PubChem BioAssay (NCI) come the findings set out here.

Values joined by “and” are separate entries in the source; they are usually repeats but may differ in a detail not shown here. Equal values may be shown once.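 Exposure lasted 48 hours, with cells grown in 96-well plates and compounds tested at five concentrations. GI50: concentration for 50% inhibition of growth. TGI: total growth inhibition.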

Assay in all cases: growth of human tumour cells (NCI), 48 h
Assay [1] deals with EKVX NSCLC.
The subject of assay [2] is HCC-2998 colon.
Assay [3] deals with KM12 colon.
For assay [4], the system named is OVCAR-3 ovarian.
For assay [5], the system named is OVCAR-5 ovarian.
The test system of assay [6] is RPMI-8226 leukemia.
The subject of assay [7] is RXF 393 renal.
Assay [8] relates to SF-268 CNS.
For assay [9], the system named is T-47D breast.
Assay [10] concerns UACC-62 melanoma.

For `Oc1ccccc1C=Nc1nc(OCc2ccccc2)nc2[nH]ncc12`, the GI50 is 30.1 µM in assay [1]; 20.2 µM in assay [2]; 20.4 µM in assay [3]; 17.8 µM in [4]; 27.2 µM in assay [5]; 14.4 µM in [6]. Further, the GI50 in assay [7] is 4.56 µM; in assay [8] it was 20.1 µM; in assay [9] it was 14 µM; in [10] it was 13.6 µM. Besides, the TGI in assay [1] was found to be 97.8 µM; in [2] it was 38.1 µM; in [3], 47.1 µM; in assay [4], 49.1 µM; in [5], 83.9 µM; in assay [6] it was 43.5 µM. Moreover, the TGI was 33.4 µM in [7], 77.5 µM in assay [8], 46.3 µM in [9] and 28.9 µM in assay [10].
With `O=C(c1ccccc1)C(Br)C(Br)c1ccccc1` (centres undefined), the GI50 is 14.6 µM in assay [1]; 13.3 µM in [2]; 3.5 µM in [3]; 1.99 µM in assay [4]; 14.5 µM in assay [5]; 3.44 µM in assay [6]. Besides, the GI50 is 1.89 µM in assay [7], 9.37 µM in assay [8], 2.59 µM in [9] and 11.8 µM in [10]. Further, the TGI amounted to 32.7 µM in assay [1]; 26.3 µM in [2]; 11.3 µM in assay [3]; 3.65 µM in assay [4]; 27.7 µM in assay [5]; 8.11 µM in [6]. The TGI stood at 3.51 µM in assay [7], 24.8 µM in assay [8], 6.26 µM in assay [9] and 24.2 µM in [10].
On to `COc1ccc(/C=C\c2cc(OC)c(OC)c(OC)c2)c(NS(=O)(=O)c2ccc(C(C)(C)C)cc2)c1O`, for which the GI50 in assay [1] is 0.706 µM; in assay [2], 1.5 µM; in assay [3], 0.58 µM; in [4] it was 0.225 µM; in assay [5], 0.626 µM; in [6] it was 0.508 µM. The GI50 was 0.0379 µM in [7], 1.71 µM in assay [8], 16.8 µM in assay [9] and 0.113 µM in [10]. In addition, the TGI in assay [1] stood at 26.3 µM; in assay [2], 15.3 µM; in [3], 15.2 µM; in assay [4], 12 µM; in assay [5], 22.3 µM; in [6] it was 25.6 µM. Moreover, the TGI in assay [7] is 16 µM; in assay [8], 41.2 µM; in [9], 52.3 µM; in [10] it was 17.5 µM.
`Nc1nc(=S)c2[nH]cnc2[nH]1`: the TGI is > 100 µM and 143 µM and > 250 µM in assay [1]; 6.93 µM and 16.7 µM and 4.98 µM in assay [2]; 6.32 µM and 7.68 µM and 9.64 µM in assay [4]; > 100 µM and 46 µM and > 250 µM in assay [5]; 2.77 µM and 22.3 µM and 3 µM in assay [6]; > 100 µM and 149 µM and 84 µM in [8]. For the same compound, the GI50 in assay [2] was 0.382 µM and 1.19 µM; in assay [3], 0.816 µM and 3.25 µM and 3.14 µM; in assay [4], 0.446 µM and 1.44 µM and 1.1 µM; in [5], 0.498 µM and 1.93 µM; in assay [6], 0.255 µM and 1.3 µM and 0.488 µM; in assay [7], 0.395 µM and 0.474 µM and 0.984 µM. In addition, the GI50 in [8] is 0.525 µM and 0.926 µM; in assay [9], 0.43 µM and 0.964 µM and 1.25 µM; in assay [10], 0.295 µM and 0.376 µM and 1.26 µM.
With `N#CCCN(CCC#N)c1ccc(C=Nc2ccc(F)cc2)cc1`, the TGI in assay [1], in assay [2], in assay [3], in assay [4], in assay [5] and in assay [6] was over 100 µM each time. Moreover, the TGI in assay [7] is over 100 µM; in assay [8] it was over 100 µM; in assay [9] it was over 100 µM; in assay [10] it was over 54.2 µM.
For the compound `C=C1CC/C=C(\C)CC[C@H](C(=C)C)[C@@H](O)/C=C(/CO)CCC1O` (some centres undefined), the GI50 was 60.4 µM in assay [1]; over 100 µM in assay [2]; 4.58 µM in assay [3]; 40 µM in [4]; over 100 µM in assay [5]; 32 µM in [6]. For the same compound, the GI50 was 89.9 µM in [7], 78.4 µM in assay [8], 45.7 µM in assay [9] and 57.3 µM in assay [10]. Also, the TGI in assay [1] is over 100 µM; in assay [2], over 100 µM; in assay [3] it was over 100 µM; in assay [4], over 100 µM; in [5], over 100 µM; in [6], 71.6 µM. Further, the TGI in assay [7], in assay [8], in assay [9] and in assay [10] was over 100 µM throughout.
As to `Cc1nc2c(Br)cc(Br)cc2c(=O)n1-c1ccccc1NC1OCC(O)C(O)C1O` (centres undefined), the TGI was over 100 µM in [1]; over 100 µM in assay [2]; 67 µM in assay [3]; 69.3 µM and 60.9 µM in assay [4]; over 100 µM in assay [5]; > 100 µM and 41.7 µM in assay [6]. The TGI is > 100 µM and 49.2 µM in assay [7]; > 100 µM and 34 µM in [8]; over 100 µM in assay [9]; > 100 µM and 36.7 µM in [10]. The GI50 in [6] was 28.5 µM and 9.26 µM; in [7], 33.2 µM and 12.5 µM; in assay [8], 45.1 µM and 5.56 µM; in assay [10], 31.7 µM and 15.7 µM.
As for `O=C(OC[C@@H]1CO1)c1cccc2c(=O)c3ccccc3[nH]c12`, the GI50 in [1] is 0.856 µM; in assay [2], 0.312 µM; in assay [3], 0.245 µM; in assay [4], 0.276 µM; in [5], 0.474 µM; in [6], 0.33 µM. The GI50 is 0.207 µM in assay [7], 0.172 µM in [8], 0.89 µM in assay [9] and 0.229 µM in [10]. Further, the TGI in assay [1] is 3.72 µM; in assay [2], 1.25 µM; in [3] it was 0.771 µM; in assay [4], 1.14 µM; in [5], 4.17 µM; in [6] it was 1.84 µM. Moreover, the TGI came out at 0.515 µM in assay [7], 1.01 µM in assay [8], 5.55 µM in [9] and 0.56 µM in assay [10].
